Our source for the IC50 and EC50 values is EP2524918A1, “Imidazopyrazines derivates as kinase inhibitors” (Centro Nacional de Investigaciones Oncológicas (CNIO), priority 2011, dated 2012).

For test [1], the system named is PC3. The test can be described thus: Antiproliferation MTT assay, PC3. Type of test: cell-based. As to conditions: Homo sapiens, PC-3; Prostate. As for the experimental part: (§1) Cells were seeded at 10000-50000 cells/well in 96 plates for 16 h. On day two, nine serial 1:3 compound dilutions were made in DMSO in a 96 well plate. The compounds were added to duplicate wells in 96-well cell plates a using a FX BECKMAN robot (Beckman Coulter) and incubated at 37°C with CO2 atmosphere. After 3 days, relative numbers of viable cells were measured by MTT (Sigma) according to manufacturer's instruction and read on EndVision (Perkin Elmer). EC50 values were calculated using ActivityBase from IDBS. Drugs in combination assays were dosed starting at 4 x EC50 concentrations and continuing with serial dilutions 1:2. PI3K inhibitors and chemotherapeutic agents were added simultaneously.
(§2) An additional exemplary in vitro cell proliferation assay includes the following steps: • 1. An aliquot of 200 µl of cell culture containing optimal density (between 10^4 - 5x10^4 cells) (see Examples for cell lines and tumour type) in medium was deposited in each well of a 96-well flat bottom plates. • 2. Control wells were prepared containing medium without cells • 3. The compound was added to the experimental wells and incubated for 3 days. • 4. […] Formazan salt formed was recorded and reported in graphs as relative growth vs. cells treated only with dmso.
Background: Tetrazolium assays rely on reduction of a dye to a coloured formazan, in cell work by metabolically active cells.

Test [2] concerns NCI H1975. The test can be described thus: Antiproliferation MTT assay, NCI H1975. Type of test: cell-based. As to conditions: Homo sapiens, Lung Cancer. The protocol:
as §1
(§3) An additional exemplary in vitro cell proliferation assay includes the following steps: • 1. An aliquot of 200 µl of cell culture containing optimal density (between 10^4 - 5x10^4 cells) (see Examples for cell lines and tumour type) in medium was deposited in each well of a 96-well flat bottom plates. • 2. Control wells were prepared containing medium without cells • 3. The compound was added to the experimental wells and incubated for 3 days. • 4. One quarter volume of MTT reagent with respect to the volume of cell culture medium present in each well was added and incubated 24h at 37°C with 5% CO2. • 5. One quarter volume of solubilisation buffer with respect to the volume of cell culture medium present in each well was added and incubated 24h at 37°C with 5% CO2. • 6. Formazan salt formed was recorded and reported in graphs as relative growth vs. cells treated only with dmso.

Test [3] relates to SKMEL19. Put plainly: Antiproliferation MTT assay, SKMEL19. The conditions noted are these: Homo sapiens, SK-MEL19, Melanoma. Type of test: cell-based. The protocol: as §1, §3
The test system of test [4] is HDAC. Put plainly: HDAC enzymatic activity (HDAC-Glo I/II Screening System, HeLa cell nuclear extracts). Type of test: biochemical. The conditions noted are these: HeLa cell nuclear extract, 25°C for 30 minutes. As for the experimental part:
HDAC inhibitory activity was evaluated using the HDAC-Glo™ I/II Screening System from Promega (G6430) using manufacturing recommendations. The system emploies HeLa cell nuclear extracts as a source of HDAC activities. The assay uses an acetylated, live-cell-permeant, luminogenic peptide substrate that can be deacetylated by HDAC activities. Substrate deacetylation is measured by a coupled protease reaction that cleaves the peptide from aminoluciferin, which is quantified in a reaction using recombinant Ultra-Glo™ firefly luciferase. Test compounds were serially diluted in dimethylsulphoside (DMSO) and added to HeLa cell nuclear extract in the presence of the acetylated luminogenic peptide substrate and developer reagent. Reactions were incubated at 25°C for 30 minutes and luminescence was measured in the EnVision plate reader (Perkin Elmer). Data were analyzed using GraphPad Prism (v5.03) with a sigmoidal dose-response curve fitting for IC50 calculation.

Test [5] concerns BT474. Put plainly: Antiproliferation MTT assay, BT474. Type of test: cell-based. As to conditions: Homo sapiens, BT-474; Breast cancer. As for the experimental part: as §1, §3
The target of test [6] is T1, PI3K (p110α/p85α (Homo sapiens, UniProt P42336)).
T1 construct: purchased Carna Biosciences #07CBS-0402A
T1 sequence (P42336 whole entry): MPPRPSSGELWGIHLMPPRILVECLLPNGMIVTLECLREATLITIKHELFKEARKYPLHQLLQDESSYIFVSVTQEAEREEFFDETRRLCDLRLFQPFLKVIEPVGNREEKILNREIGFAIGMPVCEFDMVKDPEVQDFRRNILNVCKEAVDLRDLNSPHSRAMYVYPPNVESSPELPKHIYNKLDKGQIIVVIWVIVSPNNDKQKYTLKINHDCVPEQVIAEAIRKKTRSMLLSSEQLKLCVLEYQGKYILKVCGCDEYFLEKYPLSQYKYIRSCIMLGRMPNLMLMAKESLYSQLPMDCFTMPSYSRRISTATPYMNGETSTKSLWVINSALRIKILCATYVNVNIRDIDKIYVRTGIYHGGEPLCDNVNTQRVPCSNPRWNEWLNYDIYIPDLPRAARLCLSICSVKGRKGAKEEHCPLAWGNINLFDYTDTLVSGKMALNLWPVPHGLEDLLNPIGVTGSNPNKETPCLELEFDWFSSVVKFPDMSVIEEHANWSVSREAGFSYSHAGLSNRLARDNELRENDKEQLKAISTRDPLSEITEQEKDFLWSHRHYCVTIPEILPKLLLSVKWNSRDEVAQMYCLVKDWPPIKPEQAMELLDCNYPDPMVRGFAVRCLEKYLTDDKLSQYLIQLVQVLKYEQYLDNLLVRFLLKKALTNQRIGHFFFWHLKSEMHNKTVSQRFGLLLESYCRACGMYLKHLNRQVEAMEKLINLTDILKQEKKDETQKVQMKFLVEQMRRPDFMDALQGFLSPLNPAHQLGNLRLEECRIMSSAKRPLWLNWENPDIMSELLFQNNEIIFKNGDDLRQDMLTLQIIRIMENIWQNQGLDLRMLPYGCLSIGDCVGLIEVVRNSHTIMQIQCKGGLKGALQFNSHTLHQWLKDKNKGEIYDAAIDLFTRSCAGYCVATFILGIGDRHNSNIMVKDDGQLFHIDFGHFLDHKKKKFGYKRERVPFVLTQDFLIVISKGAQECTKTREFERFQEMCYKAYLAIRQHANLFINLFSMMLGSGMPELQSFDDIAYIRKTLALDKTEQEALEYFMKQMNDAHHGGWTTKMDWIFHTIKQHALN
T1 sequence (P27986 whole entry partner): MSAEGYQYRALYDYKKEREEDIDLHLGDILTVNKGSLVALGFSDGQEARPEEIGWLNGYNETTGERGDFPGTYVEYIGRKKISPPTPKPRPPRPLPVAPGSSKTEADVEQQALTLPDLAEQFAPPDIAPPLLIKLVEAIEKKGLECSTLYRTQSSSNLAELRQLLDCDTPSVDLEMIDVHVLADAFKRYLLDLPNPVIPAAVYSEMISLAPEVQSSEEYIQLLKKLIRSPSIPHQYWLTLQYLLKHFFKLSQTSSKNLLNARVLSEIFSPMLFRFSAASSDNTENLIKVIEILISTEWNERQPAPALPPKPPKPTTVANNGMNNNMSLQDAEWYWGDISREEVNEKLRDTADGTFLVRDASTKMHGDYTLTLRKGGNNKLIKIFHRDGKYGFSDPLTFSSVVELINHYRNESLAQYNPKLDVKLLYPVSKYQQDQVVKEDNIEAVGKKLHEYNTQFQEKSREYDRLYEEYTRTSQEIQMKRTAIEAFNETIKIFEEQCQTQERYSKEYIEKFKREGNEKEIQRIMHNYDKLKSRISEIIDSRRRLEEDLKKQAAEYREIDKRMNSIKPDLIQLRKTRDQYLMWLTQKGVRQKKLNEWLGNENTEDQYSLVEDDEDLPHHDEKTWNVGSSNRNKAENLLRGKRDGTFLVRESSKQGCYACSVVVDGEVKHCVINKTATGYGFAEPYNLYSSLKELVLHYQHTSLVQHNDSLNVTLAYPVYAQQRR
Put plainly: PI3K activity assay (ADP Hunter Plus). Type of test: biochemical. As to conditions: 50 µM ATP, 30 µM PIP2, 1 hour at 25°C; read-out: PI3Kα IC50. The protocol:
The kinase activity was measured by using the commercial ADP Hunter™ Plus assay available from DiscoveRx (#33-016), which is a homogeneous assay to measure the accumulation of ADP, a universal product of kinase activity. […] Reaction was carried out for 1 hour at 25°C. Reagent A and B were sequentially added to the wells and plates were incubated for 30 min at 37 °C. Fluorescence counts were read in a Victor instrument (Perkin Elmer) with the recommended settings (544 and 580 nm as excitation and emission wavelengths, respectively). Values were normalized against the control activity included for each enzyme (i.e., 100 % PI3 kinase activity, without compound). These values were plot against the inhibitor concentration and were fit to a sigmoid dose-response curve by using the Graphad software.

Test [7] has as its system U2OS. Put plainly: Antiproliferation MTT assay, U2OS. As to conditions: Homo sapiens, Osteosar coma. Type of test: cell-based. The protocol:
as §1, §3

In test [8] the test system is COLO206. Put plainly: Antiproliferation MTT assay, COLO206. Type of test: cell-based. The conditions noted are these: Colon Cancer. As for the experimental part:
as §1, §3

Test [9] concerns SKMel29. The test can be described thus: Antiproliferation MTT assay, SKMel29. Type of test: cell-based. As to conditions: Melanoma. As for the experimental part: as §1, §3
Test [10] deals with MDAMB 231. Put plainly: Antiproliferation MTT assay, MDAMB 231. As to conditions: Homo sapiens, MDA-MB-231; Breast cancer. Type of test: cell-based. The protocol:
as §1, §3

Test [11] deals with phospho-Akt1 (Ser473) protein. Put plainly: PI3K cellular activity (Elisa assay), AKT phosphorylation in SKMEL cells. Type of test: cell-based. The conditions noted are these: inhibition of phosphorylation of AKT, read-out: AKT_P_SKMEL_ELISA_EC50.
Test [12] relates to Miapaca. The test can be described thus: Antiproliferation MTT assay, Miapaca. The conditions noted are these: Homo sapiens, MIA PaCa-2; Pancreas. Type of test: cell-based. As for the experimental part: as §1, §3
Test [13] deals with HCT 116p53 ++. Put plainly: Antiproliferation MTT assay, HCT 116. Type of test: cell-based. The conditions noted are these: Homo sapiens, HCT-116, Colon Cancer. As for the experimental part:
as §1, §3

Test [14] deals with HT39. The test can be described thus: Antiproliferation MTT assay, HT39. Type of test: cell-based. As to conditions: Colon Cancer. As for the experimental part:
as §1, §3

In test [15] the test system is Raji. Put plainly: Antiproliferation MTT assay, Raji. Type of test: cell-based. As to conditions: Homo sapiens, Burkitt Lymphoma. As for the experimental part: as §1, §3
In test [16] the test system is NCI H23. The test can be described thus: Antiproliferation MTT assay, NCI H23. Type of test: cell-based. The conditions noted are these: Homo sapiens, Lung Cancer. The protocol: as §1, §3
Test [17] has as its system A549. The test can be described thus: Antiproliferation MTT assay, A549. Type of test: cell-based. As to conditions: Homo sapiens, A549, Lung Cancer. As for the experimental part:
as §1, §3

The test system of test [18] is MV4:11. The test can be described thus: Antiproliferation assay, MV4:11. As to conditions: Homo sapiens, AML, read-out: MMP MV4:11 IC50. Type of test: cell-based. As for the experimental part: as §1, §3
Test [19] deals with NCI H460. The test can be described thus: Antiproliferation MTT assay, NCI H460. Type of test: cell-based. The conditions noted are these: Homo sapiens, Lung Cancer. The protocol:
as §1, §2

Test [20] concerns SW620. Put plainly: Antiproliferation MTT assay, SW620. The conditions noted are these: Homo sapiens, SW-620; Colon Cancer. Type of test: cell-based. The protocol:
as §1, §2

Test [21] concerns phospho-Akt1 (Ser473) protein. Put plainly: PI3K cellular activity (Elisa assay), AKT phosphorylation in U2OS cells. Type of test: cell-based. As to conditions: Homo sapiens, U20S cells, inhibition of phosphorylation of AKT, 3h treatment, read-out: AKT_P_U20S_ELISA_EC50. As for the experimental part:
Activity is measured as endogenous levels of phospho-Akt1 (Ser473) protein. Osteosarcoma U2OS cells are plated in 96 Poly-D-Lysine coating tissue culture plates (18.000 cells/well). After the treatment with serial dilutions of the compound during 3h, the cells are fixed directly in the wells with 4% paraformaldehyde.
After fixing, individual wells go through the same series of steps used for a conventional immunoblot: including blocking with 5% BSA, incubation with 1/1000 of primary antibody-AKT ([…]) in PBS containing 5% BSA at 4°C overnight (Cell Signalling), washing and incubation with second antibody HRP-anti-mouse IgG for 1 h at RT (Amersham). After the addition of SuperSignal ELISA Femto maximum sensitivity chemiluminescent substrate (Pierce) the results are read using a luminescence plate reader (Victor).

For test [22], the system named is MCF7. The test can be described thus: Antiproliferation MTT assay, MCF7. Type of test: cell-based. The conditions noted are these: Homo sapiens, Breast cancer. As for the experimental part: as §1, §2
[23] abbreviates: first of two columns with the same head (c1).
Where [24] appears, read: second of two columns with the same head (c2).
[25] abbreviates: first of two columns with the same head (c3).

What is called IC50 is the concentration at which inhibition is half-maximal.

For the molecule `Nc1ncc(-c2cn3cc(CNc4ncc(C(=O)NO)cn4)nc3c(N3CCOCC3)n2)cn1` [Final Compound 1], the IC50 in test [1] turned out to be 5760 nM; in test [2], 14400 nM; in [3] (setting [23]) it was 3300 nM; in [3] (setting [24]), 2300 nM; in test [4], 21.1 nM; in [5], 500 nM. The IC50 was 5.7 nM in test [6]; 5360 nM in [7]; 5940 nM in test [8]; 1330 nM in [9]; 5730 nM in test [10]; 4320 nM in [12]. Besides, the 50% inhibitory concentration (IC50) in [13] amounted to 7770 nM; in [13] (setting [25]) it was 6710 nM; in [14], 34600 nM; in test [15], 2750 nM; in [16], 77900 nM; in [17] (setting [23]), 50800 nM. For the same molecule, the IC50 in [18] came out at 1150 nM. Besides, in [11], the EC50 is 330 nM.

With `Nc1ncc(-c2cn3cc(CN4CCN(c5ncc(C(=O)NO)cn5)CC4)nc3c(N3CCOCC3)n2)cn1` [Final Compound 2], the IC50 in test [19] stood at 2390 nM; in test [1] it was 1170 nM; in test [2], 1050 nM; in test [3] (setting [23]) it was 370 nM; in test [3] (setting [24]), 70 nM; in test [4] it was 9 nM. In addition, the IC50 in test [20] came out at 1340 nM; in [5], 94 nM; in test [6] it was 3.2 nM; in [7] it was 2110 nM; in test [8] it was 560 nM; in test [9] it was 16 nM. Further, the IC50 came out at 560 nM in [10]; 630 nM in test [12]; 670 nM in test [13]; 1160 nM in test [13] (setting [25]); 1210 nM in [14]; 280 nM in test [15]. Further, the IC50 in test [16] worked out at 2150 nM; in [22] it was 540 nM; in [17] (setting [23]), 3530 nM; in test [17] (setting [24]), 1320 nM; in test [18], 340 nM. The EC50 came to 1360 nM in test [21] and 70 nM in test [11].

Turning to `CN(Cc1cn2cc(-c3cnc(N)nc3)nc(N3CCOCC3)c2n1)c1ncc(C(=O)NO)cn1` [Final Compound 3], the IC50 is 1690 nM in test [19]; 240 nM in test [2]; 100 nM in [3] (setting [23]); 43 nM in [3] (setting [24]); 10.6 nM in [4]; 400 nM in test [20]. Further, the IC50 in test [5] amounted to 19 nM; in test [6], 7.5 nM; in test [7], 250 nM; in test [8], 150 nM; in [9] it was 16 nM; in test [10], 180 nM. In addition, the concentration for half-maximal inhibition (IC50) in test [12] is 150 nM; in [13], 240 nM; in [13] (setting [25]), 410 nM; in test [14], 580 nM; in test [15], 51 nM; in test [16] it was 2040 nM. The IC50 was 120 nM in test [22], 1080 nM in test [17] (setting [23]), 990 nM in test [17] (setting [24]) and 40 nM in test [18]. Further, the EC50 stood at 26 nM in [21] and 1940 nM in test [11].
